Reference: patent US20230136600A1, “Method and device for screening antigen epitope polypeptide” (priority 2020, published 2023)

Test system: Balb/c mice
Assay: Polypeptide chip-based vaccine immunogenicity scoring system
Format: in vivo
Parameters: key to A2: whether the 95 percentile of the last sampling is increased compared with the end point: Y = rise; N = no rise
Settings: Embodiment III, polypeptide-KLH; for A1: difference between a highest median and a D 0 median (95 percentile) / A2: whether the 95 percentile of the last sampling is increased compared with the end point: Mix1-10; for Total single peptide: A*3 + B*2 + C*1; for A: 95 percentile grouping number score / B: Mouse performance score: total score = 5; for C1: #A timing-sequence response peptide fragment set / C2: #B vaccine specificity peptide fragment set / C3: Intersection of A and B / C4: Percentage of the intersection in set B / C: Timing-sequence response and specificity score: value of the whole mix
Protocol: Data distribution and characteristics thereof are analyzed based on a) and b), a polypeptide chip-based vaccine immunogenicity scoring system (referring to Table 7) is designed.
10 combinations are evaluated by the polypeptide chip-based vaccine immunogenicity scoring system. An evaluation method is consistent with that in Embodiment II. Evaluation results are show in the table below.
This embodiment is consistent with Embodiment II. Each combination is evaluated by the polypeptide chip-based vaccine immunogenicity scoring system. Evaluation results are show in the table below.

Sequence	B1: D 0-D 14 95 percentile rise in the number of mice	B2: D 0-D 21 95 percentile rise in the number of mice	B3: D 14-D 21 95 percentile rise in the number of mice	B4: D 21-D 28 95 percentile rise in the number of mice	A1: difference between a highest median and a D 0 median (95 percentile)	A2: whether the 95 percentile of the last sampling is increased compared with the end point	Total single peptide	A: 95 percentile grouping number score	B: Mouse performance score	C1: #A timing-sequence response peptide fragment set	C2: #B vaccine specificity peptide fragment set	C3: Intersection of A and B	C4: Percentage of the intersection in set B	C: Timing-sequence response and specificity score
NSVAYSNNS (SARS-CoV-2) [SEQ ID NO:9]	3	3	1	1	0.07	N	10.3	2	1.9	145	529	1	0.189	0.5
NVAKSEFDRDAA [SEQ ID NO:26]	3	3	1	0	0.06	N	6.9	1	1.7	352	541	1	0.185	0.5
PLQPELDSFKEE [SEQ ID NO:37]	3	2	1	1	0.09	Y	15.9	4	1.7	230	251	1	0.398	0.5
